Experimental data reported in paper PMC3338516 (PLoS ONE, 2012).
Like-named read-outs stand apart in the source and are kept apart here. Ends that are not written are not given here.

Tests used:
HLA-A0201 = target: T1, HLA-A0201 (Homo sapiens, UniProt P04439, D140Y/D185E/D98H/E176V/E277Q/G131W/G231S/I119V/I121R/I166T/I218V/L300P/L318F/N151K/N90K/P208A/P217A/Q86G/Q94H/R138H/R169H/T345S); test: Competition-based cellular peptide binding assay, HLA-A0201; conditions: for IC50: mild-acid-treated B-LCLs, 150 nM fluorescent reference peptide […], overnight 4°C, flow cytometry, mean of two independent experiments, read-out: HLA-A201 IC50
T1 construct: endogenous in cells
Protocol: To test binding affinity of eluted and predicted peptides to HLA-I, competition-based cellular peptide binding assays were performed as described earlier. […] Cells were buffered with cold IMDM containing 2% FCS immediately thereafter and resuspended at a concentration of 4×10^5 cells/ml in 2% FCS and 1.5 µg/ml human β2m (Sigma-Aldrich). […] The following HLA-I allele-restricted reference peptides were used: […] (for HLA-B0702) and […] (for HLA-B4002), each containing a fluorescent label bound to the cysteine residue. After overnight incubation at 4°C, cells were washed twice in PBS supplemented with 1% BSA and fixed in 0.5% paraformaldehyde. Cells were analyzed with CellQuestPro or FlowJo software (Tree Star, Ashland, OR, USA).

HLA-B0702 [1] = target: T2, HLA-B0702 (Homo sapiens, UniProt P01889); test: Competition-based cellular peptide binding assay, HLA-B0702; conditions: for IC50: mild-acid-treated B-LCLs, 150 nM fluorescent reference peptide […], overnight 4°C, flow cytometry, mean of two independent experiments
T2 construct: endogenous in cells
Protocol: (§1) To test binding affinity of eluted and predicted peptides to HLA-I, competition-based cellular peptide binding assays were performed as described earlier. In short, B-LCLs were treated with a mild acid (1∶1 mixture of 0.263M C6H8O7*H2O and 0.126M Na2HPO4*2H2O) for 1 min to remove the naturally HLA-I bound peptides. Cells were buffered with cold IMDM containing 2% FCS immediately thereafter and resuspended at a concentration of 4×10^5 cells/ml in 2% FCS and 1.5 µg/ml human β2m (Sigma-Aldrich). Then, 4×10^4 cells/well were incubated with 150 nM of fluorescently labeled reference peptide and a serial dilution of one of the eluted or predicted peptides. The following HLA-I allele-restricted reference peptides were used: […] (for HLA-A0201), […] (for HLA-A0301), […] (for HLA-B0702) and […] (for HLA-B4002), each containing a fluorescent label bound to the cysteine residue. After overnight incubation at 4°C, cells were washed twice in PBS supplemented with 1% BSA and fixed in 0.5% paraformaldehyde. Cells were analyzed with CellQuestPro or FlowJo software (Tree Star, Ashland, OR, USA). IC50 values were defined with GraphPad Prism 4.02 (GraphPad Software Inc., La Jolla, USA) using the following formula: Y = Bmax*X/(IC50+X), in which Bmax is the maximal binding capacity of the positive control peptide, X the concentration of peptide tested and IC50 the concentration of peptide needed to reach half-maximal binding.

HLA-B4002 [2] = target: T3, HLA-B4002 (Homo sapiens, UniProt P01889, A65T/A93T/A95T/D138N/D201E/D98Y/E176V/E204Q/E69K/K202T/N87E/Q56L/Q94N/R180L/S48T/Y33H/Y91S); conditions: Figure 3 legend; positive control peptide; cited from earlier work
Text: (§2) (A0201 peptide), […] (A0301 peptide), SPSVDK ...

HLA-A0301 = target: T4, HLA-A0301 (Homo sapiens, UniProt P04439); test: Competition-based cellular peptide binding assay, HLA-A0301; conditions: Table 2; mild-acid-treated B-LCLs, 150 nM fluorescent reference peptide […], overnight 4°C, flow cytometry; mean of two independent experiments
T4 construct: endogenous in cells
Protocol: as §1

HLA-B4002 [3] = target: T3, HLA-B4002; test: Competition-based cellular peptide binding assay, HLA-B4002; conditions: Table 2; mild-acid-treated B-LCLs, 150 nM fluorescent reference peptide […], overnight 4°C, flow cytometry; mean of two independent experiments
Protocol: as §1

HLA-B0702 [4] = target: T2, HLA-B0702; conditions: Figure 3 legend; positive control peptide; cited from earlier work
Text: as §2

[5] = Table 1, class by IC50 cut-off values
[6] = Table 1, concentration for half maximal competition

| Sequence | IC50 (HLA-A0201; [6]) | IC50 (HLA-B0702 [1]; Table 1) | IC50 (HLA-A0201; Table 2) | IC50 (HLA-B0702 [1]; Table 2) | IC50 (HLA-A0301) | IC50 (HLA-B4002 [3]) | other results |
| --- | --- | --- | --- | --- | --- | --- | --- |
| ETIDWKVFESW [Peptide 5] | > 100 µM | > 100000 nM | – | – | – | – | HLA-A201 Affinity (HLA-A0201; [5]): – (no binding, >100 µM); HLA-B0702 Affinity (HLA-B0702 [1]; [5]): – (no binding, >100 µM) |
| GEFGGFGSV | – | – | – | – | – | – | IC50 (HLA-B4002 [2]): 200 nM |
| KMRMATPLL | – | – | 10.9 µM | 470 nM | 6.43 µM | 440 nM | – |
| LLAGQATT [Peptide 2] | > 100 µM | 40900 nM | – | – | – | – | – |
| LPMGALPQGPM [Peptide 4] | > 100 µM | 410 nM | – | – | – | – | – |
| RMATPLLMQA | – | – | 8.08 µM | 7750 nM | 2.45 µM | 2050 nM | – |
| RMATPLLMQAL [RMATPLLMQAL] | – | – | 4.49 µM | 1850 nM | 4.28 µM | 480 nM | – |
| RMATPLLMQALPM [Peptide 3] | 13.7 µM | 360 nM | – | – | 3.35 µM | 3430 nM | – |
| SPSVDKARAEL | – | – | – | – | – | – | IC50 (HLA-B0702 [4]): 700 nM |
| SRGALYTGFSIL [Peptide 1] | 10.9 µM | 1390 nM | – | – | – | – | – |
